Reference: patent US4430331A, “Antiarrhytmic benzylimidazole” (Shionogi & Co., Ltd., priority 1981, dated 1984)

Key:
atrium dextrum specimens = assay: Antiarrhythmic activity (cardiomuscular action to the maximal stimulus frequency); set-up: species or system guinea-pigs; details: isolated guinea-pig atrium dextrum, Krebs-Ringer-sodium carbonate solution, 30° C., after 10 minutes treatment with test compound
Procedure: (a) Antiarrhythmic activity (cardiomuscular action to the maximal stimulus frequency) A certain number of atrium dextrum specimens were made by extracting the heart from male and female guinea-pigs weighing on average 350 to 600 g, and then suspended and fixed in a glass vessel filled with Krebs-Ringer-sodium carbonate solution (30° C.) in which a mixture of 95% oxygen and 5% carbon dioxide was continuously introduced. The automatism of the specimens was recorded on the oscillograph. Maximal stimulus frequency was confirmed by affording a stimulus of the atrium dextrum from the exciting electrode equipped to a retainer. After previously treating with a test compound for 10 minutes, the reducing percent (%) of the maximal stimulus frequency was calculated by observing the reduction of the maximal frequency [[…].: Brit. […]., 1, 90 (1946)].

SLC-DDY male mice = assay: in vivo; type: in vivo; details: LD50, up and down method, into tail venae (intravenous), SLC-DDY male mice 25 to 35 g
Excerpt: (§1) Lethal dose was obtained by administering a test compound in the form of a physiological brine solution into the tail venae of SLC-DDY male mice weighing from 25 to 35 g and calculating the value of LD50 by the up and down method [Brownlee, K. A. et al.: J. Am. Stat. As., 48, 262 (1953)].

in vivo = type: in vivo; details: mouse, in vivo; LD50, up and down method, into tail venae (intravenous), SLC-DDY male mice 25 to 35 g; read-out: Acute toxicity (LD50)
Excerpt: as §1

Structure (SMILES)	Reducing percent (%) of Maximal stimulus frequency (atrium dextrum specimens) [%]	Acute toxicity (LD50) (SLC-DDY male mice) [mg/kg]	LD50 (in vivo) [mg/kg]
C=C(c1c(Cl)ccc(Cl)c1OCC(O)CNC(C)C)n1ccnc1 (stereo not shown) [Example 7]	38.1	19.8	–
C=C(c1c(Cl)ccc(Cl)c1OCC(O)CNCC(C)C)n1ccnc1 (stereo not shown) [Example 13]	34.5	15.5	–
C=C(c1ccccc1OCC(O)CNC(C)C)n1cnc(C(=O)OCC)c1C (stereo not shown) [Example 17]	31.7	–	36.4
C=C(c1ccccc1OCC(O)CNC(C)(C)C)n1cnc2ccccc21 (stereo not shown) [Example 22]	35.8	26.5	–
C=C(c1ccccc1OCC(O)CNC(C)C)n1cnc(C)c1 (stereo not shown) [Example 24]	36.1	36.4	–
C=C(c1ccccc1OCC(O)CNC(C)(C)C)n1cccn1 (stereo not shown) [Example 25]	39.2	22.3	–
C=C(c1ccc(Cl)c(Cl)c1OCC(O)CNC(C)C)n1ccnc1 (stereo not shown) [Example 26]	35.8	33.9	–
C=C(c1c(C)ccc(Cl)c1OCC(O)CNC(C)C)n1ccnc1 (stereo not shown) [Example 30]	50.6	28.5	–
C=C(c1ccccc1OCC(O)CNC(C)C)n1cncn1 (stereo not shown) [Example 31]	42.8	36.4	–
C=C[C@H]1C[N@@]2CC[C@H]1C[C@@H]2[C@@H](O)c1ccnc2ccc(OC)cc12 [Quinidine, reference compound]	22.8	–	–
